As usually defined, the IC50 is the concentration at which inhibition is half-maximal. Lower therefore signals greater potency.

The target of one experiment is T1, HSD17B13 enzyme (Homo sapiens, UniProt Q7Z5P4).
T1 construct: His; made in house; host or cells: E. coli
T1 sequence (Q7Z5P4 20-300): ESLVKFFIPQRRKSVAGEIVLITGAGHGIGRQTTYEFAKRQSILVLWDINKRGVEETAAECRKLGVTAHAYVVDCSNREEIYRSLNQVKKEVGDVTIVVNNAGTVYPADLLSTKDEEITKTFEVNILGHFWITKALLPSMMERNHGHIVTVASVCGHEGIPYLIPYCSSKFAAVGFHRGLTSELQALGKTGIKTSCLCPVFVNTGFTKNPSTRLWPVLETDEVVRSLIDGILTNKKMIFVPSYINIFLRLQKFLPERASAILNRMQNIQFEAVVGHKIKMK
Kind of experiment: LC/MS estrone detection assay (conversion of estradiol to estrone by HSD17B13). The class given is biochemical. The note with it: substrate 4 μM estradiol, 6 mM NAD+, 30 nM HSD17B13 enzyme, 2 hours at 26.5° C. The procedure:
The liquid chromatography/mass spectrometry (LC/MS) estrone detection assay monitors the conversion of estradiol to estrone by HSD17B13. This assay was performed in a 96 wp format (Eppendorf deep well Plate 96/500) in an 80 μl reaction volume containing: 4 μM estradiol (E2; Cayman; Ser. No. 10/006,315); 6 mM NAD^+ (Sigma; #N0623), and 30 nM HSD17B13 enzyme (in-house; E. coli expressed His-tagged, purified, soluble protein), in a buffer containing 1M potassium phosphate buffer pH 7.4 and 0.5% vehicle (DMSO). Reactions were incubated for 2 hours at 26.5° C., and estradiol (E2) conversion to estrone (E1) was quantitated by LC-MS/MS based analyte detection for E1 using LCMS grade reagents. Reactions were terminated by the addition of two volumes of acetonitrile (MeCN; LCMS grade; CAS #75/05/8) containing deuterated (D4)-E1 as internal standard (Clear Synth; #CS-T-54273; 500 ng/mL final concentration). Samples were applied to pre-prepared Bond Elut-C18 extraction cartridges (3 mL; Agilent; Ser. No. 12/102,028), and washed and eluted in MeCN. Eluates were dried under nitrogen and re-suspended in 60% methanol (LCMS grade methanol; CAS #67/56/1) before submission for analysis. Standard curves for E1 were included for quantification. Analysis of samples was undertaken on a XBridge BEH C18 column (Waters; #186003033) using 0.1% Diethyl Amine in MeCN (mobile phase A; DEA CAS #109-89-7) and 0.1% Diethyl Amine in milli-Q water (mobile phase B) in a 3 min gradient up to 25% B. Analytes were detected in negative mode using MRM analysis, with E2 having a RT of 1.85 min and E1 having a RT of 2 min. Activity of the enzyme in the absence of NAD^+, was subtracted from samples to yield values for specific enzyme activity. Enzyme activity in the presence of test samples was expressed as a percentage of the uninhibited enzyme activity, and plotted versus inhibitor concentration. Non-linear regression was performed using the Morrison equation (see below) for tight binding inhibitors on GraphPad Prism software (GraphPad Software, La Jolla, Calif.). All assessments were undertaken in duplicate evaluations which were pooled during the extraction process and subsequently injected as duplicates for LC-MS/MS analysis. Y=Vo*(1−((((Et+X+Q)−(((Et+X+Q)^2)−4*Et*X)^0.5))/(2*Et))) Morrison equation:
Y=Activity in the presence of inhibitor; Vo=Activity in absence of inhibitor; Et=Total enzyme concentration; X=inhibitor concentration; and Q=(Ki*(1+(S/Km))), where Ki is the inhibition constant, Km is the Michaelis constant, and S is the substrate concentration.
`O=C(Nc1sc(Cl)cc1C(=O)NCCc1ccccc1F)c1ccc(O)c(F)c1` [Example 43, 5-chloro-2-(3-fluoro-4-hydroxybenzamido)-N-(2-fluorophenethyl)thiophene-3-carboxamide] returned a 50% inhibitory concentration (IC50) of at most 100 nM. In turn, `O=C(Nc1ccsc1C(=O)NCc1c[nH]c2ccccc12)c1ccc(O)c(Cl)c1` [Example 4, N-((1H-indol-3-yl)methyl)-3-(3-chloro-4-hydroxybenzamido)thiophene-2-carboxamide] came in with an IC50 of at most 100 nM. In the case of `O=C(Nc1cc(Cl)sc1C(=O)NCCc1ccc(F)cc1Cl)c1ccc(O)c(F)c1` [Example 34, 5-chloro-N-(2-chloro-4-fluorophenethyl)-3-(3-fluoro-4-hydroxybenzamido) thiophene-2-carboxamide], the IC50 fell in the range of 100 to 1000 nM. On to `O=C(Nc1cc(Cl)sc1C(=O)NCCc1ccc(Cl)cc1Cl)c1ccc(O)c(F)c1` [Example 36, 5-chloro-N-(2,4-dichlorophenethy1)-3-(3-fluoro-4-hydroxybenzamido)thiophene-2-carboxamide], for which the IC50 is at most 100 nM.

Take `COc1ccccc1CCNC(=O)c1sccc1NC(=O)c1ccc2[nH]nc(Cl)c2c1` [Example 28, 3-chloro-N-(2-((2-methoxyphenethyl)carbamoyl)thiophen-3-yl)-1H-indazole-5-carboxamide]: the 50% inhibitory concentration (IC50) is over 10000 nM.

With `O=C(Nc1sc(Cl)cc1C(=O)NCCc1ccccc1OC(F)(F)F)c1ccc(O)c(F)c1` [Example 46, 5-chloro-2-(3-fluoro-4-hydroxybenzamido)-N-(2-(trifluoromethoxy)phenethyl) thiophene-3-carboxamide], the IC50 was at most 100 nM. The same measure, in the same setting: as for `O=C(Nc1cc(Cl)sc1C(=O)NC1(c2ccc(F)cc2)CC1)c1cc(F)c(O)c(F)c1` [Example 35, 5-chloro-3-(3,5-difluoro-4-hydroxybenzamido)-N-(1-(4-fluorophenyl)cyclopropyl)thiophene-2-carboxamide], the figure is at most 100 nM; as for `O=C(Nc1cc(Cl)sc1C(=O)NCCN1CCOCC1)c1ccc(O)c(F)c1` [Example 38, 5-chloro-3-(3-fluoro-4-hydroxybenzamido)-N-(2-morpholinoethyl)thiophene-2-carboxamide], at most 100 nM.

Consider `COc1ccccc1CCNC(=O)c1c(NC(=O)c2ccc(O)c(Cl)c2)sc2c1CCN(C)C2` [Example 15, 2-(3-chloro-4-hydroxybenzamido)-N-(2-methoxyphenethyl)-6-methyl-4,5,6,7-tetrahydrothieno[2,3-c]pyridine-3-carboxamide], for which the IC50 lay within 100 to 1000 nM.

In turn, `CC(C)(C)CCNC(=O)c1sccc1NC(=O)c1cc(F)c(O)c(Cl)c1` [Example 47, 3-(3-chloro-5-fluoro-4-hydroxybenzamido)-N-(3,3-dimethylbutyl)thiophene-2-carboxamide] registered a 50% inhibitory concentration (IC50) of at most 100 nM. The same measure, in the same setting: the value for `O=C(Nc1cc(Cl)sc1C(=O)NCCc1ccc(F)cc1F)c1ccc(O)c(F)c1` [Example 39, 5-chloro-N-(2,4-difluorophenethyl)-3-(3-fluoro-4-hydroxybenzamido)thiophene-2-carboxamide] was at most 100 nM; that for `O=C(Nc1cc(Cl)sc1C(=O)NCCc1ccccc1C(F)(F)F)c1ccc(O)c(Cl)c1` [Example 45, 5-chloro-3-(3-chloro-4-hydroxybenzamido)-N-(2-(trifluoromethyl)phenethyl) thiophene-2-carboxamide] was at most 100 nM. On to `O=C(Nc1sc(Cl)cc1C(=O)NCCN1CCOCC1)c1ccc(O)c(F)c1` [Example 41, 5-chloro-2-(3-fluoro-4-hydroxybenzamido)-N-(2-morpholinoethyl)thiophene-3-carboxamide.], for which the IC50 was 100 to 1000 nM. `CN1CCN(CCNC(=O)c2cc(Cl)sc2NC(=O)c2ccc(O)c(F)c2)CC1` [Example 42, 5-chloro-2-(3-fluoro-4-hydroxybenzamido)-N-(2-(4-methylpiperazin-1-yl)ethyl)thiophene-3-carboxamide]: the 50% inhibitory concentration (IC50) lay in the range of 1000 to 10000 nM. Same read-out and setting: as for `O=C(Nc1cc(Cl)sc1C(=O)NCCc1ccccc1C(F)(F)F)c1cc(F)c(O)c(F)c1` [Example 44, 5-chloro-3-(3,5-difluoro-4-hydroxybenzamido)-N-(2-(trifluoromethyl)phenethyl) thiophene-2-carboxamide], the figure is at most 100 nM; as for `O=C(Nc1sc(Cl)cc1C(=O)NCCc1ccccc1OC(F)(F)F)c1ccc(O)c(Cl)c1` [Example 40, 5-chloro-2-(3-chloro-4-hydroxybenzamido)-N-(2-(trifluoromethoxy)phenethyl)thiophene-3-carboxamide], at most 100 nM; as for `O=C(Nc1ccsc1C(=O)N[C@@H](CO)c1ccccc1)c1ccc(O)c(Cl)c1` [Example 49, (R)-3-(3-chloro-4-hydroxybenzamido)-N-(2-hydroxy-1-phenylethyl)thiophene-2-carboxamide], at most 100 nM. In turn, `O=C(Nc1ccsc1C(=O)N[C@H](CO)c1ccccc1)c1ccc(O)c(Cl)c1` [Example 48, (S)-3-(3-chloro-4-hydroxybenzamido)-N-(2-hydroxy-1-phenylethyl) thiophene-2-carboxamide] displayed an IC50 of 100 to 1000 nM.

`CN1CCN(CCNC(=O)c2sc(Cl)cc2NC(=O)c2ccc(O)c(F)c2)CC1` [Example 37, 5-chloro-3-(3-fluoro-4-hydroxybenzamido)-N-(2-(4-methylpiperazin-1-yl)ethyl)thiophene-2-carboxamide] registered a concentration for half-maximal inhibition (IC50) of 100 to 1000 nM.

In a further experiment the target is T1, HSD17B13 enzyme. The experiment is described as follows: NADH detection assay (fluorescence based Leukotriene B3 (LTB3) assay) for HSD17B13 activity. The note with it: substrate 25 μM LTB3, 3 mM NAD+, 125 nM HSD17B13 enzyme, 1 hour at 26.5° C. The class given is biochemical. The procedure: The fluorescence based Leukotriene B3 (LTB3) assay monitors the fluorescence of NADH, which is generated from NAD+ during the dehydrogenation of the substrate LTB3. The reactions were performed in a 384-well plates (Greiner; #655076) in a 20 μl reaction volume containing the following reagents (final concentrations): 25 μM LTB3 (Cayman; #20109); 3 mM NAD^+ (Sigma; #N0623); 125 nM HSD17B13 enzyme (in-house; E. coli expressed His-tagged, purified, soluble protein); 1 M potassium phosphate buffer, pH 7.4; and 1% DMSO. Reactions were initiated by co-addition of NAD+ and enzyme, and monitored for 1 hour at 26.5° C. Generation of NADH was measured as the fluorescence signal (Excitation at 340 nm and Emission at 445 nm) at 1 hour minus the baseline fluorescence at t=0. Fluorescence signals in the absence of LTB3 (negative control values), were subtracted from all values so that the results reflected substrate-dependent production of NADH. NADH standards were included to allow the conversion of relative fluorescence units into rates of enzyme activity. Enzyme activity in the presence of test compounds was expressed as a percentage of the uninhibited enzyme activity, and plotted versus inhibitor concentration. Non-linear regression was performed using a four-parameter logistic model and Microsoft Excel Solver® software. Ten concentrations of inhibitor were tested in duplicate (in the range of 30 μM-2.5 nM). Two independent concentration response assays were performed and the geometric mean is reported, =/−the SEM.
In the case of `O=C(Nc1ccsc1C(=O)NCc1c[nH]c2ccccc12)c1ccc(O)c(Cl)c1` [Example 4, N-((1H-indol-3-yl)methyl)-3-(3-chloro-4-hydroxybenzamido)thiophene-2-carboxamide], the IC50 was at most 1 µM.

In the case of `COc1ccccc1CCNC(=O)c1sccc1NC(=O)c1ccc2[nH]nc(Cl)c2c1` [Example 28, 3-chloro-N-(2-((2-methoxyphenethyl)carbamoyl)thiophen-3-yl)-1H-indazole-5-carboxamide], the 50% inhibitory concentration (IC50) was over 10 µM. Compound `COc1ccccc1CCNC(=O)c1sccc1NC(=O)c1ccc(OCC(=O)O)c(Cl)c1` [Example 11, 2-(2-chloro-4-((2-((2-methoxyphenethyl)carbamoyl)thiophen-3-yl)carbamoyl)phenoxy)acetic acid] returned an IC50 of over 10 µM. Regarding `COc1ccccc1CCNC(=O)c1sccc1NC(=O)c1cc(Cl)c(O)c(C(C)C)c1` [Example 23, 3-(3-chloro-4-hydroxy-5-isopropylbenzamido)-N-(2-methoxyphenethyl)thiophene-2-carboxamide], the IC50 is over 10 µM. Same read-out and setting: as for `COc1ccccc1CCNC(=O)c1sccc1NC(=O)c1cnc(O)c(Cl)c1` [Example 21, 5-chloro-6-hydroxy-N-(2-((2-methoxyphenethyl)carbamoyl)thiophen-3-yl)nicotinamide], the figure is over 10 µM; as for `COc1ccccc1CCNC(=O)c1sccc1NC(=O)c1cc(Cl)c(O)c(Cl)c1` [Example 32, 3-(3,5-dichloro-4-hydroxybenzamido)-N-(2-methoxyphenethyl)thiophene-2-carboxamide], at most 1 µM; as for `COc1ccccc1CCNC(=O)c1sccc1NC(=O)c1ccc(CCC(=O)O)c(F)c1` [Example 22, 3-(2-fluoro-4-((2-((2-methoxyphenethyl)carbamoyl)thiophen-3-yl)carbamoyl)phenyl) propanoic acid], over 10 µM.

The record behind these values is patent US12673930B2, “Thiophene HSD17B13 inhibitors and uses thereof” (INIPHARM, INC., priority 2020, dated 2026).
